Several values for one entry are separate records, joined by “and”; a condition that tells them apart may be missing. Equal values may be shown once. Inconclusive results and toxic doses are left out.

The subject of the experiment is P388 leukemia ip, CD2F1 mice, survival T/C. Put plainly: NCI In Vivo Anticancer Drug Screen. Data for tumor model P388 Leukemia (intraperitoneal) in CD2F1 (CDF1) mice. The note with it: endpoint: median survival time, higher = longer survival. The method, boiled down:
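Mice carrying the transplanted tumor received test compound or vehicle. Survival was recorded in each group, and the value is the treated-group measurement divided by that of the vehicle-treated control group.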

[1] abbreviates: dose: 200.0 mg/kg/injection, schedule: Q01DX009 (ip), vehicle: saline with Tween-80.

On to `O=NN(C(=O)NC1CC1)C1CCCC1`, for which the T/C (dose: 25.0 mg/kg/injection, schedule: Q01DX001 (ip), vehicle: distilled water + Tween-80) was 103 % of control; the T/C (dose: 50.0 mg/kg/injection, schedule: Q01DX001 (ip), vehicle: distilled water + Tween-80) is 109 % of control; the T/C (dose: 100.0 mg/kg/injection, schedule: Q01DX001 (ip), vehicle: distilled water + Tween-80) is 102 % of control; the T/C (dose: 200.0 mg/kg/injection, schedule: Q01DX001 (ip), vehicle: distilled water + Tween-80) is 111 % of control; the T/C (dose: 400.0 mg/kg/injection, schedule: Q01DX001 (ip), vehicle: distilled water + Tween-80) was 102 % of control.
With `O=C1c2c(O)ccc(Cl)c2C(=O)C2CC=CCC12` (configuration not stated), the T/C is, setting by setting: (dose: 50.0 mg/kg/injection, schedule: Q04DX003 (ip), vehicle: DMSO) 94 % of control; (dose: 100.0 mg/kg/injection, schedule: Q04DX003 (ip), vehicle: DMSO) 88 % of control; (dose: 200.0 mg/kg/injection, schedule: Q04DX003 (ip), vehicle: DMSO) 87 % of control.
Take `Cn1c(/C=N/N2CCOCC2)cnc1[N+](=O)[O-]`: the T/C (dose: 50.0 mg/kg/injection, schedule: Q01DX009 (ip), vehicle: saline with Tween-80) was 106 % of control; the T/C (dose: 100.0 mg/kg/injection, schedule: Q01DX009 (ip), vehicle: saline with Tween-80) was 109 % of control; the T/C under setting [1] is 110 % of control.
In the case of `O=C(CCCO)c1nc2ccccc2s1`, the T/C runs as follows: (dose: 60.0 mg/kg/injection, schedule: Q01DX005 (ip), vehicle: Klucel (hydroxypropylcellulose) (HPC)) 106 % of control; (dose: 120.0 mg/kg/injection, schedule: Q01DX005 (ip), vehicle: Klucel (hydroxypropylcellulose) (HPC)) 101 % of control; (dose: 240.0 mg/kg/injection, schedule: Q01DX005 (ip), vehicle: Klucel (hydroxypropylcellulose) (HPC)) 100 % of control.
With `N#CC(C#N)=CC(C#N)C#N`, the T/C was 104 % of control (dose: 12.5 mg/kg/injection, schedule: Q01DX005 (ip), vehicle: saline); 101 % of control (dose: 25.0 mg/kg/injection, schedule: Q01DX005 (ip), vehicle: saline); 107 % of control and 92 % of control (dose: 50.0 mg/kg/injection, schedule: Q01DX005 (ip), vehicle: saline).
In the case of `Nc1nc(=S)c2[nH]cnc2[nH]1`, the T/C is, setting by setting: (dose: 0.25 mg/kg/injection, schedule: Q01DX009 (ip), vehicle: acid diluted with saline) 114 % of control; (dose: 0.25 mg/kg/injection, schedule: Q01DX009 (ip), vehicle: alkali diluted with saline) 120 % of control; (dose: 0.38 mg/kg/injection, schedule: Q01DX005 (ip), vehicle: alkali diluted with saline) 108 % of control; (dose: 0.5 mg/kg/injection, schedule: Q01DX009 (ip), vehicle: acid diluted with saline) 106 % of control; (dose: 0.5 mg/kg/injection, schedule: Q01DX009 (ip), vehicle: alkali diluted with saline) 119 % of control; (dose: 0.75 mg/kg/injection, schedule: Q01DX005 (ip), vehicle: alkali diluted with saline) 115 % of control. The T/C is 112 % of control (dose: 1.0 mg/kg/injection, schedule: Q01DX009 (ip), vehicle: acid diluted with saline); 109 % of control (dose: 1.12 mg/kg/injection, schedule: Q04DX003 (ip), vehicle: acid diluted with saline); 155 % of control (dose: 1.44 mg/kg/injection, schedule: Q01DX009 (ip), vehicle: acid diluted with saline); 123 % of control (dose: 1.5 mg/kg/injection, schedule: Q01DX005 (ip), vehicle: alkali diluted with saline); 154 % of control (dose: 1.5 mg/kg/injection, schedule: Q01DX009 (ip), vehicle: acid diluted with saline); 151 % of control (dose: 1.5 mg/kg/injection, schedule: Q01DX009 (ip), vehicle: alkali diluted with saline). Further, the T/C is, setting by setting: (dose: 2.0 mg/kg/injection, schedule: Q01DX005 (ip), vehicle: alkali diluted with saline) 157 % of control; (dose: 2.0 mg/kg/injection, schedule: Q01DX009 (ip), vehicle: acid diluted with saline) 106 % of control; (dose: 2.0 mg/kg/injection, schedule: Q04DX003 (ip), vehicle: alkali diluted with saline) 119 % of control; (dose: 2.25 mg/kg/injection, schedule: Q04DX003 (ip), vehicle: acid diluted with saline) 119 % of control; (dose: 2.4 mg/kg/injection, schedule: Q01DX009 (ip), vehicle: acid diluted with saline) 154 % of control and 170 % of control; (dose: 2.5 mg/kg/injection, schedule: Q04DX003 (ip), vehicle: alkali diluted with saline) 116 % of control. Also, the T/C by setting is: (dose: 3.24 mg/kg/injection, schedule: Q04DX003 (ip), vehicle: acid diluted with saline) 117 % of control; (dose: 4.5 mg/kg/injection, schedule: Q01DX009 (ip), vehicle: saline) 122 % of control; (dose: 4.5 mg/kg/injection, schedule: Q04DX003 (ip), vehicle: acid diluted with saline) 119 % of control; (dose: 5.0 mg/kg/injection, schedule: Q04DX003 (ip), vehicle: alkali diluted with saline) 108 % of control; (dose: 6.0 mg/kg/injection, schedule: Q01DX005 (ip), vehicle: alkali diluted with saline) 116 % of control; (dose: 6.0 mg/kg/injection, schedule: Q01DX009 (ip), vehicle: acid diluted with saline) 105 % of control. Moreover, the T/C is, setting by setting: (dose: 12.0 mg/kg/injection, schedule: Q01DX005 (ip), vehicle: alkali diluted with saline) 113 % of control; (dose: 20.0 mg/kg/injection, schedule: Q04DX003 (ip), vehicle: alkali diluted with saline) 120 % of control.
In the case of `CN1CCC2c3c([nH]c4ccccc34)C(C)(C)OC2C1` (configuration not stated), the T/C runs as follows: (dose: 60.0 mg/kg/injection, schedule: Q01DX005 (ip), vehicle: saline with Tween-80) 111 % of control; (dose: 120.0 mg/kg/injection, schedule: Q01DX005 (ip), vehicle: saline with Tween-80) 113 % of control; (dose: 240.0 mg/kg/injection, schedule: Q01DX005 (ip), vehicle: saline with Tween-80) 118 % of control.
`CC(=O)OC1COC(NC(=O)N(CCCl)N=O)C(OC(C)=O)C1OC(C)=O` (configuration not stated): the T/C reads like this: (dose: 1.5 mg/kg/injection, schedule: Q01DX009 (ip), vehicle: saline with Tween-80) 111 % of control; (dose: 3.0 mg/kg/injection, schedule: Q01DX009 (ip), vehicle: saline with Tween-80) 121 % of control; (dose: 6.0 mg/kg/injection, schedule: Q01DX009 (ip), vehicle: saline with Tween-80) 151 % of control; (dose: 12.0 mg/kg/injection, schedule: Q01DX009 (ip), vehicle: saline with Tween-80) 161 % of control; (dose: 24.0 mg/kg/injection, schedule: Q01DX009 (ip), vehicle: saline with Tween-80) 272 % of control; (dose: 48.0 mg/kg/injection, schedule: Q01DX009 (ip), vehicle: saline with Tween-80) 114 % of control.
As for `C(=NCCN=Cc1ccccc1)c1ccccc1`, the T/C is 95 % of control under setting [1] and 87 % of control (dose: 400.0 mg/kg/injection, schedule: Q01DX009 (ip), vehicle: saline with Tween-80).
Turning to `CC(C)C12CC3=C(C(=O)C1O2)C1(C)CCC2=C(COC2=O)C1CC3` (configuration not stated), the T/C was 102 % of control (dose: 3.75 mg/kg/injection, schedule: Q01DX005 (ip), vehicle: DMSO); 119 % of control (dose: 7.5 mg/kg/injection, schedule: Q01DX005 (ip), vehicle: DMSO); 123 % of control (dose: 15.0 mg/kg/injection, schedule: Q01DX005 (ip), vehicle: DMSO).
With `CC(C)(C)COSc1ccccc1`, where the note is “dose: 100.0 mg/kg/injection, schedule: Q04DX003 (ip), vehicle: saline with Tween-80”, the T/C was 106 % of control.
Regarding `Nc1ncnc2c1c1c(=O)[nH]cnc1n2C1OC(CO)C(O)C1O` (configuration not stated), the T/C is 107 % of control (dose: 3.13 mg/kg/injection, schedule: Q01DX009 (ip), vehicle: water); 113 % of control (dose: 6.25 mg/kg/injection, schedule: Q01DX009 (ip), vehicle: water); 114 % of control (dose: 12.5 mg/kg/injection, schedule: Q01DX009 (ip), vehicle: water); 116 % of control (dose: 50.0 mg/kg/injection, schedule: Q01DX009 (ip), vehicle: water).
Turning to `ClC1CC(C(Cl)(Cl)Cl)CCC1C(Cl)(Cl)Cl` (configuration not stated), the T/C is, setting by setting: (dose: 50.0 mg/kg/injection, schedule: Q01DX005 (ip), vehicle: saline with Tween-80) 98 % of control; (dose: 100.0 mg/kg/injection, schedule: Q01DX005 (ip), vehicle: saline with Tween-80) 96 % of control; (dose: 200.0 mg/kg/injection, schedule: Q01DX005 (ip), vehicle: saline with Tween-80) 96 % of control.
For the compound `CCC[CH2][Sn]([F])([CH2]CCC)[O][Sn]([F])([CH2]CCC)[CH2]CCC`, the T/C reads like this: (dose: 100.0 mg/kg/injection, schedule: Q04DX003 (ip), vehicle: saline) 101 % of control; (dose: 200.0 mg/kg/injection, schedule: Q04DX003 (ip), vehicle: saline) 105 % of control.

Values taken from PubChem BioAssay AID330 (DTP/NCI, 2004).
